Reference: patent publication US20170246124A1, “TREATMENT OF LEIGH SYNDROME AND LEIGH-LIKE SYNDROME WITH TOCOTRIENOL QUINONES” (BioElectron Technology Corporation, priority 2009, published 2017)
Read-outs that look alike come from different tables or passages of the source.

What was measured:
[1] = Animal study of alpha-tocotrienol quinone administration, pharmacokinetics in fasted dogs; details: dog, in vivo, po, 10 mg/kg
Experimental: (§1) The particular dosage appropriate for a specific patient is determined by dose titration. […] There is less than dose-proportionality since for an increase in doses of 2.4:6:10:20 there is only an increase in AUCs of 1.5:2.8:4.0:6.7. This lack of dose-proportionality may be due to decreased absorption since there is no change in t1/2 over dose range. Alpha-tocotrienol quinone tested in rats was safe when given acutely up to 2000 mg/kg.

[2] = rat, in vivo
Experimental: as §1
The starting dose can be estimated based on the United States Food and Drug Administration guidelines titled “Estimating the Maximum Safe Starting Dose in Initial Clinical Trials for Therapeutics in Adult Healthy Volunteers” (July 2005) as well as the International Conference on Harmonisation of Technical Requirements for Registration of Pharmaceuticals for Human Use (ICH) guidelines titled “Guidance on Non-clinical Safety Studies for the Conduct of Human Clinical Trials and Marketing Authorization for Pharmaceuticals” (July 2008). Per ICH guidelines, predicted exposures from the starting dose should not exceed 1/50th the NOAEL (No-Adverse-Observed-Effect-Level) in the more sensitive species on a mg/m^2 basis. Following a single oral dose of alpha-tocotrienol quinone, the NOAEL was established to be 500 mg/kg for the female rat, i.e. 3,000 mg/m2. This dosage would be equivalent to 81 mg/kg in an adult human. […]

[3] = system: SURF-1 fibroblasts; assay: Surfeit-1 (SURF1) cell line assay: rescue of BSO-stressed patient fibroblasts, Calcein AM viability; assay type: cell-based; details: Homo sapiens, Fibroblast, BSO-stressed fibroblasts of the Example 2 patient
Experimental: Alpha-Tocotrienol quinone, its redox-silent version (the bis-Boc protected corresponding hydroquinone), and solvent controls were tested for their ability to rescue cells from SURF-1 fibroblasts of the patient diagnosed with SURF-1 described in Example 2, when the cells were stressed by addition of L-buthionine-(S,R)-sulfoximine (BSO), as described in Jauslin et al., Hum. Mol. Genet. 11(24):3055 (2002), Jauslin et al., FASEB J. 17:1972-4 (2003), and International Patent Application WO 2004/003565. EC50 concentrations of test compound and its redox-silent version were determined and compared. The following compound, 2-((6E,10E)-3-hydroxy-3,7,11,15-tetramethylhexadeca-6,10,14-trienyl)-3,5,6-trimethyl-bis(t-butyloxycarbonyl)benzene-1,4-diol, the bis-Boc protected hydroquinone form of alpha-tocotrienol quinone, was used as the “redox-silent” alpha tocotrienol quinone, or αTTQ-RS.
MEM (a medium enriched in amino acids and vitamins, catalog no. 1-31F24-I) and Medium 199 (M199, catalog no. 1-21F22-I) with Earle's Balanced Salts, without phenol red, were purchased from Bioconcept. Fetal Calf Serum was obtained from PAA Laboratories. Basic fibroblast growth factor and epidermal growth factor were purchased from PeproTech. Penicillin-streptomycin-glutamine mix, L-buthionine (S,R)-sulfoximine, and insulin from bovine pancreas were purchased from Sigma. […]

[4] = Blood-brain barrier crossing, homogenized brains of mice dosed IP; assay type: in vivo; details: C57/BL mice dosed IP at 25 mg/kg, FIG. 5
[5] = system: patient with Leigh Syndrome; assay: Treatment of a Leigh Syndrome patient with SURF-1 mutations (Example 2): lactate, MRI, adverse events; assay type: in vivo, human; details: Example 2 patient
Experimental: A patient with Leigh Syndrome was treated with alpha-tocotrienol quinone. Informed consent was obtained from the child's parents in accordance with federal regulations and institutional protocol. Two mutations were identified in the SURF-1 gene of the patient.
(§2) The patient's weight was approximately 10 kg. Alpha-tocotrienol quinone was administered to the patient via gastrointestinal feeding tube; the drug was mixed with sesame oil for administration. The following dosing of alpha-tocotrienol quinone was used:
The patient returned for a review of safety and efficacy evaluation, including CNS lactate/pyruvate ratios as determined by non-invasive means (MRI/MRS) and ECHO. The following efficacy parameters were evaluated: PK parameters; magnetic resonance spectroscopy of central nervous system; echocardiography and electrocardiogram; and plasma and urine analytes.
Lactic acid measurements were as follows:
Magnetic resonance imaging of the patient was performed to assess the effect of treatment. […] These findings are consistent with Leigh Syndrome encephalopathies.
Close monitoring of the patient during the study was performed, to detect any adverse events. In addition, the investigator had authority to stop the study if the safety of the subject was at risk.

[6] = Treatment of a Leigh Syndrome patient with SURF-1 mutations (Example 2): drug levels in plasma and CSF; assay type: in vivo, human; details: Example 2 patient
Experimental: as §2
Full pharmacokinetic sampling (post dose, 3 h, 6 h, 10 h, 24 h, 36 h, 48 h, and 72 h) was done after administration of the initial dose. 0.5 mL of blood were taken at each time point, for a total of four mL of blood drawn at 72 h. Bio-analysis and pharmacokinetic calculations were conducted.
The minimal effective dose of alpha-tocotrienol quinone was determined. The concentration 24 hours after dosing (C24h) was expected to be 220.5 ng/ml (0.504), while the minimal effective dose was expected to be around 150 mg. Thus, the daily dosage was escalated stepwise.
The concentration of alpha tocotrienol quinone was monitored in the patient. […] Alpha tocotrienol quinone was present at 1.3 ng/ml in CSF.

[7] = system: patient with Leigh Syndrome; assay: Treatment of a Leigh Syndrome patient (Example 3), observed function; assay type: in vivo, human; details: Example 3 patient
Experimental: A patient with Leigh Syndrome was treated with alpha-tocotrienol quinone. Informed consent was obtained from the child's parents in accordance with federal regulations and institutional protocol. A mutation was identified in the SURF-1 gene of the patient.
At the start of treatment, the patient was unable to control their extremities. […] The patient also gained weight.

[8] = Animal study of alpha-tocotrienol quinone administration, pharmacokinetics in rats; details: rat, in vivo, 10 mg/kg
Experimental: as §1

[9] = after treatment compared with pre-treatment MRI

For CC(C)=CCC/C(C)=C/CC/C(C)=C/CCC(C)(O)CCC1=C(C)C(=O)C(C)=C(C)C1=O (stereo not drawn) [alpha-tocotrienol quinone, Alpha-tocotrienol quinone], the bioavailability [1] was ~16%, the “dose at which safe when given acutely” value [2] was “up to 2000 mg/kg” and the “NOAEL on mg/m2 basis” value ([2]; po) was 3,000 mg/m2. The EC50 ([3]; FIG. 1 experiment run beside Coenzyme Q10, read-out: EC50, viability of cells with a SURF-1 mutation (FIG. 1)) was 27 nM, the EC50 ([3]; FIG. 2 experiment run beside αTTQ-RS, read-out: EC50, viability of cells with a SURF-1 mutation (FIG. 2)) was 21 nM and the “crosses the blood-brain barrier” value [4] was “crosses the blood-brain barrier”. The adverse events ([5]; close monitoring during the study, FIG. 7) was “No adverse events were observed”, the “plasma lactate level after treatment” value ([5]; 3.6 mM approximately 4 months prior to treatment, normal range 1.0 to 1.4 mM) was 1.1 mM and the “CSF lactate level after treatment” value ([5]; 46.5 mg/dL about 2 years pre-treatment) was 24.0 mg/dL. The “MRI: T2 hyperintensities of midbrain, pons, medulla and cerebellum” value [5, 9] was “interval improvement”, the “MRI: amount of lesions” value [5, 9] was “overall decrease” and the “reduction of CSF lactate” value ([5]; after treatment vs about 2 years pre-treatment) was 48.4%. The “reduction of plasma lactate” value ([5]; after treatment vs approximately 4 months prior) was 69.4%, the “decrease in brain lactate” value ([5]; two days prior to treatment to approximately 98 days after starting) was 20-30% and the “concentration 24 hours after dosing (C24h), expected” value ([6]; expectation before dose escalation) was 220.5 ng/mL. The concentration at 98 day of treatment ([6]; human, cerebrospinal fluid, other: via gastrointestinal feeding tube, 98th day of treatment, FIG. 9) was 1.3 ng/mL, the control of extremities ([7]; after 22 days of treatment, unable to control extremities at start) was “able to move their arm in the “high-five” gesture” and the motor function ([7]; after 379 days of treatment) was “able to sit upright”. The weight gained ([7]; after 379 days of treatment) was 15 pounds, the gastrointestinal function ([7]; under treatment) was “greatly improved” and the sleep ([7]; under treatment) was “improved”. It also gave a bioavailability [8] of ~90%.
